This note sets out measurements from patent publication US6664256B1, “Phenylpyridazine compounds and medicines containing the same” (Kowa Co., Ltd., priority 2000, dated 2003).

The structures appear in SMILES notation.

The first series deals with interleukin-1β production. Briefly: Inhibitory activity against interleukin-1β production (LPS-stimulated HL-60 cells, ELISA). Particulars: Homo sapiens, 72 h, lipopolysaccharide 10 μg/ml, culturing for 3 days, interleukin-1β determined by ELISA, read-out: IL-β (IC50 μM). The format is cell-based. As for the experimental part:
Experiment 1 (Inhibitory Activity against Interleukin-1β Production)
Inhibitory activity of the compounds of the present invention, which are represented by the formula (I), against interleukin-1β production was tested by the following experiment:
HL-60 cells were cultured for 4 days until confluence on RPMI 1640 medium with 10% fetal bovine serum (FBS) added thereto. The medium was centrifuged. The supernatant was discarded, and the cells were then suspended at 1×10^6 cells/ml on RPMI 1640 medium with 3% FBS, and lipopolysaccharide was added to give a final concentration of 10 μg/ml . The culture was inoculated at 1 ml/well to a 24-well plate. A test compound was added at 1 μl/well, followed by culturing for 3 days. Three days later, the amount of interleukin-1β in each culture was determined by ELISA. Each IC50 value was determined by a comparison in yield with a control to which no test compound was added.
`COc1ccc(-c2cc(Cl)nnc2-c2ccc(OC)cc2)cc1` [Comp. Comp'd 1, reference compound]: the concentration for half-maximal inhibition (IC50) (usually the concentration that inhibits the measured activity by half) worked out at 32.1 µM. On the same count and under the same terms, next, `COc1ccc(-c2cc(Oc3ccc(F)c(F)c3)nnc2-c2ccc(OC)cc2)cc1` [Example 9, 3,4-bis(4-methoxyphenyl)-6-(3,4-difluorophenoxy)pyridazine]: 0.46 µM; `COc1ccc(-c2cc(Oc3c(F)cccc3F)nnc2-c2ccc(OC)cc2)cc1` [Example 8, 3,4-bis(4-methoxyphenyl)-6-(2,6-difluorophenoxy)pyridazine]: 0.35 µM; `CSc1ccc(-c2nnc(Sc3ccccc3)cc2-c2ccc(Sc3ccccc3)cc2)cc1` [Example 32, 3-[4-(methylthio)phenyl]-6-phenylthio-4-[4-(phenylthio)phenyl]pyridazine]: 0.94 µM. Still for that read-out and setting: as for `COc1ccc(-c2cc(C#N)nnc2-c2ccc(OC)cc2)cc1` [Example 51, 3,4-bis-(4-methoxyphenyl)-6-cyanopyridazine], the figure is 0.09 µM; as for `COc1ccc(-c2cc(Oc3ccccc3C#N)nnc2-c2ccc(OC)cc2)cc1` [Example 18, 3,4-bis(4-methoxyphenyl)-6-(2-cyanophenoxy)pyridazine], 0.15 µM. The same measure, in the same setting: next, `COc1ccc(-c2nnc(Oc3cccc(F)c3F)cc2-c2ccccc2)cc1` [Example 25, 6-(2,3-difluorophenoxy)-3-(4-methoxyphenyl)-4-phenylpyridazine]: 0.32 µM; `COc1ccc(-c2nnc(Oc3ccc(F)cc3F)cc2-c2ccccc2)cc1` [Example 26, 6-(2,4-difluorophenoxy)-3-(4-methoxyphenyl)-4-phenylpyridazine]: 0.31 µM; `COc1ccc(-c2nnc(C#N)cc2-c2ccccc2)cc1` [Example 66, 6-cyano-3-(4-methoxyphenyl)-4-phenylpyridazine]: 0.68 µM. As to `COc1ccc(-c2cc(Oc3cc(F)ccc3F)nnc2-c2ccc(OC)cc2)cc1` [Example 7, 3,4-bis(4-methoxyphenyl)-6-(2,5-difluorophenoxy)pyridazine], the concentration for half-maximal inhibition (IC50) stood at 0.18 µM. In the case of `COc1ccc(Oc2cc(-c3ccc(OC)cc3)c(-c3ccc(OC)cc3)nn2)cc1` [Example 15, 3,4-bis(4-methoxyphenyl)-6-(4-methoxyphenoxy)pyridazine], the IC50 was 0.45 µM. Same read-out and setting: as for `COc1ccc(-c2cc(Oc3cccc(F)c3F)nnc2-c2ccc(OC)cc2)cc1` [Example 5, 3,4-bis(4-methoxyphenyl)-6-(2,3-difluorophenoxy)pyridazine], the figure is 0.12 µM; as for `CSc1ccc(-c2nnc(Oc3ccc(F)cc3F)cc2-c2ccc(Cl)cc2)cc1` [Example 33, 4-(4-chlorophenyl)-6-(2,4-difluorophenoxy)-3-[4-(methylthio)phenyl]pyridazine], 0.26 µM; as for `COc1ccc(-c2cc(Oc3ccccc3)nnc2-c2ccc(OC)cc2)cc1` [Example 3, 3,4-bis(4-methoxyphenyl)-6-(phenoxy)pyridazine], 0.1 µM.

Turning to `COc1ccc(-c2cc(Oc3c(F)c(F)cc(F)c3F)nnc2-c2ccc(OC)cc2)cc1` [Example 11, 3,4-bis(4-methoxyphenyl)-6-(2,3,5,6-tetrafluorophenoxy)pyridazine], the IC50 turned out to be 0.19 µM. Same read-out and setting: as for `COc1ccc(-c2nnc(Oc3ccc(F)cc3F)cc2-c2ccncc2)cc1` [Example 23, 6-(2,4-difluorophenoxy)-3-(4-methoxyphenyl)-4-(4-pyridyl)pyridazine], the figure is 0.96 µM. Still for that read-out and setting: as for `COc1ccc(-c2cc(Oc3c(F)c(F)c(F)c(F)c3F)nnc2-c2ccc(OC)cc2)cc1` [Example 12, 3,4-bis(4-methoxyphenyl)-6(2,3,4,5,6-pentafluorophenoxy)pyridazine], the figure is 0.04 µM; as for `COc1ccc(-c2cc(Sc3cc(Cl)c(Cl)c(Cl)c3)nnc2-c2ccc(OC)cc2)cc1` [Example 14, 3,4-bis(4-methoxyphenyl)-6-(3,4,5-trichlorophenylthio)pyridazine], 0.2 µM; as for `COc1ccc(-c2cc(Oc3ccc([N+](=O)[O-])cc3)nnc2-c2ccc(OC)cc2)cc1` [Example 17, 3,4-bis(4-methoxyphenyl)-6-(4-nitrophenoxy)pyridazine], 0.63 µM. Same read-out and setting: next, `CCOC(=O)c1c(Cl)nnc(-c2ccc(OC)cc2)c1-c1ccc(OC)cc1` [Comp. Comp'd 2, reference compound]: 4.16 µM; `COc1ccc(-c2cc(Oc3cccc(C#N)c3)nnc2-c2ccc(OC)cc2)cc1` [Example 19, 3,4-bis(4-methoxyphenyl)-6-(3-cyanophenoxy)pyridazine]: 0.16 µM.

As for `COc1ccc(-c2nnc(Oc3c(F)c(F)c(F)c(F)c3F)cc2-c2ccccc2)cc1` [Example 27, 3-(4-methoxyphenyl)-6-(2,3,4,5,6-pentafluorophenoxy)-4-phenylpyridazine], the IC50 was 0.01 µM.

System in another series: not given
Experiment: not given
Conditions: not given
In the case of `CSc1ccc(-c2nnc(Cl)cc2-c2ccccc2)cc1` [Example 59, 6-chloro-3-[4-(methylthio)phenyl]-4-phenylpyridazine], the melting point (commonly the temperature of the solid-liquid transition) was in the range of 157.7 to 158.3 °C. The same measure, in the same setting: as for `CS(=O)(=O)c1ccc(-c2nnc(Cl)cc2-c2ccc(Cl)cc2)cc1` [Example 60, 6-chloro-4-(4-chlorophenyl)-3-[4-(methylsulfonyl)phenyl]pyridazine], the figure is 189.6 to 190.5 °C. On the same count and under the same terms, next, `CSc1ccc(-c2nnc(Cl)cc2-c2ccc(F)cc2)cc1` [Example 28, 6-chloro-4-(4-fluorophenyl)-3-[4-(methylthio)phenyl]pyridazine]: 130.9 to 131.4 °C; `CSc1ccc(-c2nnc(Sc3ccccc3)cc2-c2ccc(Sc3ccccc3)cc2)cc1` [Example 32, 3-[4-(methylthio)phenyl]-6-phenylthio-4-[4-(phenylthio)phenyl]pyridazine]: 53.3 to 56.2 °C.

With `Cc1cc(-c2ccc(Cl)cc2)c(-c2ccc(S(C)(=O)=O)cc2)nn1` [Example 50, 4-(4-chlorophenyl)-6-methyl-3-[4-(methylsulfonyl)phenyl]pyridazine], the melting point lay within 205 to 209 °C. Compound `COc1ccc(-c2nnc(Oc3cccc(F)c3F)cc2-c2ccccc2)cc1` [Example 25, 6-(2,3-difluorophenoxy)-3-(4-methoxyphenyl)-4-phenylpyridazine] registered a melting point of 155.2 to 156.6 °C. On the same count and under the same terms, as for `COc1ccc(-c2nnc(Oc3ccc(F)cc3F)cc2-c2ccccc2)cc1` [Example 26, 6-(2,4-difluorophenoxy)-3-(4-methoxyphenyl)-4-phenylpyridazine], the figure is 169 to 169.9 °C. Still for that read-out and setting: as for `CSc1ccc(-c2nnc(Oc3ccc(F)cc3F)cc2-c2ccc(F)cc2)cc1` [Example 29, 6-(2,4-difluorophenoxy)-4-(4-fluorophenyl)-3-[4-(methylthio)phenyl]pyridazine], the figure is 140.6 to 143.4 °C.

`COc1ccc(-c2cc(NCc3ccccc3)nnc2-c2ccc(OC)cc2)cc1` [Example 41, 6-benzylamino-3,4-bis(4-methoxyphenyl)pyridazine] returned a melting point of 125.4 to 126.3 °C.

Compound `CSc1ccc(-c2nnc(Oc3ccc(F)cc3F)cc2-c2ccc(Cl)cc2)cc1` [Example 33, 4-(4-chlorophenyl)-6-(2,4-difluorophenoxy)-3-[4-(methylthio)phenyl]pyridazine] showed a melting point of 163.2 to 164 °C.

With `CSc1ccc(-c2nnc(Cl)cc2-c2ccc(Cl)cc2)cc1` [Example 31, 6-chloro-4-(4-chlorophenyl)-3-[4-(methylthio)phenyl]pyridazine], the melting point is 145 to 145.8 °C. Consider `CS(=O)(=O)c1ccc(-c2nnc(Oc3ccc(F)cc3F)cc2-c2ccc(Cl)cc2)cc1` [Example 34, 4-(4-chlorophenyl)-6-(2,4-difluorophenoxy)-3-[4-(methylsulfonyl)phenyl]pyridazine], for which the melting point is 115.2 to 117.3 °C. The compound `CSc1ccc(-c2nnc(SC)cc2-c2ccc(F)cc2)cc1` [Example 46, 4-(4-fluorophenyl)-6-methylthio-3-[4-(methylthio)phenyl]pyridazine] came in with a melting point of 165.8 to 169.5 °C.
